The source of these data is patent publication US8859541B2, “6-alkynylpyridines” (Boehringer Ingelheim International GmbH, priority 2012, dated 2014).

As usually defined, the IC50 is the concentration needed to halve the response being measured. Read a high IC50 as weaker potency.

Test [1] addresses T1, XIAP BIR3 (Homo sapiens, UniProt P98170).
T1 construct: covering amino acids 241 to 356; XIAP BIR3; made in house; host or cells: E. coli
The experiment in a line: XIAP BIR3 binding assay (DELFIA), displacement of SMAC peptide. The following applies: GST-fusion BIR3 domain (aa 241 to 356) 10 nM, SMAC peptide 10 nM; activity of the (S)-isomers. A digest of the protocol: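 Each BIR3 domain (10 nM) incubated with biotinylated N-terminal SMAC peptide (10 nM) and compound for 1 h at room temp in Tris/NaCl buffer with BSA, DTT and Triton X-100. Captured on streptavidin plates; bound BIR3 detected by Eu-labelled anti-GST time-resolved fluorescence, giving IC50 values.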

For test [2], the target named is T2, cIAP1 BIR3 (Homo sapiens, UniProt Q13490).
T2 construct: covering amino acids 256 to 363; cIAP1 BIR3; made in house; host or cells: E. coli
The experiment in a line: cIAP1 BIR3 binding assay (DELFIA), displacement of SMAC peptide. The note with it: GST-fusion BIR3 domain (aa 256 to 363) 10 nM, SMAC peptide 10 nM; activity of the (S)-isomers. Here is the method:
Biological Methods XIAP BIR3 and cIAP1 BIR3 Binding Assays (DELFIA)
Peptide […]-Lys(Biotin), representing the N-terminus of mature human SMAC (SMAC peptide), was used as interaction partner in the protein-peptide interaction assay.
BIR3 domains (10 nM) were incubated with SMAC peptide (10 nM) in Assay Buffer (50 mM Tris, 120 mM NaCl, 0.1% BSA, 1 mM DTT, 0.05% TritonX100) for one hour at room temperature in the presence of inhibitiory compounds. The assay mixture was transferred to a strepatvidin coated plate and incubated for one hour at room temperature to allow binding of the biotinylated peptide and associated BIR3 domains to the plate. After several washing steps Eu labeled anti-GST antibody (e.g. Perkin Elmer DELFIA Eu-N1-antiGST AD0250) was added to detect BIR3 domain-SMAC peptide interactions according to Perkin Elmer's instructions. […] Time resolved Europium fluoresecence was measured in a Wallac Victor using Standard assay settings.
DELFIA assay results were plotted against compound concentrations and Software GraphPad Prizm was used to calculate half maximal inhibitory concentrations (IC50 values).

T2 sequence (Q13490 256-363): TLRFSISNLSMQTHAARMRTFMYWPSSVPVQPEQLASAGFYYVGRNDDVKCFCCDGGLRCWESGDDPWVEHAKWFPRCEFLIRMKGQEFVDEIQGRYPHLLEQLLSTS
T1 sequence (P98170 241-356): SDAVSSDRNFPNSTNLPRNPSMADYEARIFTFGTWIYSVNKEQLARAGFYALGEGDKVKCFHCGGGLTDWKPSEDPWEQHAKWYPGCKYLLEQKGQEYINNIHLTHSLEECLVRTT

With `CNC(C)C(=O)Nc1ccc(-c2cccc3ccccc23)c(C#Cc2ccccc2)n1` (stereo not shown) [Example 130, 2-(methylamino)-N-[5-naphthalen-1-yl-6-(2-phenyl-ethynyl)pyridin-2-yl]propanamide], the concentration for half-maximal inhibition (IC50) in test [1] turned out to be 3200 nM; in test [2], 172 nM.
For `CNC(C)C(=O)Nc1ccc(-c2c(C)nc3ccccn23)c(C#Cc2nn(C)c3ncccc23)n1` (stereo not shown) [Example 58, 2-(methylamino)-N-[5-(2-methylimidazo[1,2-a]pyridin-3-yl)-6-[2-(1-methylpyrazolo[3,4-b]pyridin-3-yl)ethynyl]pyridin-2-yl]propanamide] the same measures were 224 nM and 5 nM.
For `CNC(C)C(=O)Nc1ccc(-c2c(C)nc3ccccn23)c(C#Cc2ccc3cnccc3c2)n1` (stereo not shown) [Example 29, N-[6-(2-isoquinolin-6-yl-ethynyl)-5-(2-methyl-imidazo[1,2-a]pyridin-3-yl)-pyridin-2-yl]-2-(methylamino)-propanamide] the same measures were 145 nM and 1 nM.
For `CNC(C)C(=O)Nc1ccc(-c2c(C)nc(N3CCOCC3)nc2C)c(C#Cc2ccc3ncccc3c2)n1` (stereo not shown) [Example 54, N-[5-(4,6-dimethyl-2-morpholin-4-ylpyrimidin-5-yl)-6-(2-quinolin-6-ylethynyl)-pyridin-2-yl]-2-(methylamino)-propanamide] the same measures were 863 nM and 1 nM.
In the case of `CNC(C)C(=O)Nc1ccc(-c2sc(C)nc2C)c(C#Cc2ccccc2)n1` (stereo not shown) [Example 186, N-[5-(2,4-dimethyl-1,3-thiazol-5-yl)-6-(2-phenylethynyl)pyridin-2-yl]-2-(methylamino)propanamide], the figures for the half-inhibitory concentration (IC50) in test [1] and in test [2] were 151 nM and 16 nM, respectively.
On the same counts, the results for `CNC(C)C(=O)Nc1ccc(-c2c(-c3ccncc3)nc3cc(C)ccn23)c(C#Cc2ccc(OC)c3ncccc23)n1` (stereo not shown) [Example 96, N-[6-[2-(8-methoxyquinolin-5-yl)ethynyl]-5-(7-methyl-2-pyridin-4-ylimidazo[1,2-a]-pyridin-3-yl)pyridin-2-yl]-2-(methylamino)propanamide] are 83 nM and 1 nM.
On the same counts, the results for `CNC(C)C(=O)Nc1ccc(-c2c(C)nc3ccccn23)c(C#Cc2ccc3nc(C)ccc3c2)n1` (stereo not shown) [Example 30, 2-(methylamino)-N-[5-(2-methylimidazo[1,2-a]pyridin-3-yl)-6-[2-(2-methylquinolin-6-yl)ethynyl]pyridin-2-yl]propan-amide] are 417 nM and 1 nM.
For `CNC(C)C(=O)Nc1ccc(-c2c(C)nc3ccccn23)c(C#Cc2ccc3occc3c2)n1` (stereo not shown) [Example 52, N-[6-[2-(1-benzofuran-5-yl)-ethynyl)-5-(2-methyl-imidazo[1,2-a]pyridin-3-yl)-pyridin-2-yl]-2-(methylamino)-propanamide] the same measures were 145 nM and 1 nM.
On to `CNC(C)C(=O)Nc1ccc(-c2cncc(C#N)c2)c(C#Cc2ccccc2)n1` (stereo not shown) [Example 123, N-[5-(5-cyanopyridin-3-yl)-6-(2-phenylethynyl)pyridin-2-yl]-2-(methylamino)propanamide], for which the IC50 is 121 nM in test [1] and 25 nM in test [2].
Take `CNC(=O)c1ccc(-c2ccc(NC(=O)C(C)NC)nc2C#Cc2ccccc2)cn1` (stereo not shown) [Example 182, N-methyl-5-[6-[[2-(methyl-amino)propanoyl]amino]-2-(2-phenylethynyl)pyridin-3-yl]-pyridine-2-carboxamide]: the IC50 in test [1] was determined as 135 nM; in test [2], 36 nM.
For `CNC(C)C(=O)Nc1ccc(-c2cncc(C(=O)OC)c2)c(C#Cc2cccc(C)c2)n1` (stereo not shown) [Example 13, methyl 5-[6-[[2-(methyl-amino)propanoyl]amino]-2-[2-(3-methylphenyl)ethynyl]-pyridin-3-yl]pyridine-3-carboxylate] the same measures were 96 nM and 12 nM.
For `CC(N)C(=O)Nc1cc2ccccc2c(C#Cc2cc(F)cc(F)c2)n1` (stereo not shown) [Example 229, 2-amino-N-[1-[2-(3,5-difluorophenyl)ethynyl]-isoquinolin-3-yl]propanamide] the same measures were 2420 nM and 589 nM.
On the same counts, the results for `CNC(C)C(=O)Nc1ccc(-c2c(C)nc(N(C)C)nc2C)c(C#Cc2ccc3c(ccc(=O)n3C)c2)n1` (stereo not shown) [Example 75, N-[5-[2-(dimethylamino)-4,6-dimethylpyrimidin-5-yl]-6-[2-(1-methyl-2-oxoquinolin-6-yl)-ethynyl]pyridin-2-yl]-2-(methyl-amino)propanamide] are 1670 nM and 1 nM.
Turning to `CC(N)C(=O)Nc1cc2ccccc2c(C#Cc2ccsc2)n1` (stereo not shown) [Example 203, 2-amino-N-[1-(2-thiophen-3-ylethynyl)isoquinolin-3-yl]propanamide], the 50% inhibitory concentration (IC50) in test [1] came out at 760 nM; in test [2] it was 251 nM.
For `CNC(C)C(=O)Nc1ccc(-c2c(-c3ccncc3)nc3cc(C)ccn23)c(C#Cc2ccc(Cl)c(Cl)c2)n1` (stereo not shown) [Example 39, N-[6-[2-(3,4-dichlorophenyl)-ethynyl)-5-(7-methyl-2-pyridin-4-ylimidazo[1,2-a]pyridin-3-yl)-pyridin-2-yl]-2-(methylamino)-propanamide] the same measures were 87 nM and 1 nM.
On the same counts, the results for `CNC(C)C(=O)Nc1ccc(-c2ccc(OC)nc2OC)c(C#Cc2ccccc2)n1` (stereo not shown) [Example 126, N-[5-(2,6-dimethoxypyridin-3-yl)-6-(2-phenylethynyl)pyridin-2-yl]-2-(methylamino)propanamide] are 1010 nM and 166 nM.
Turning to `CNC(C)C(=O)Nc1ccc(-c2c(-c3ccncc3)nc3cc(C)ccn23)c(C#Cc2ccccc2)n1` (stereo not shown) [Example 185, 2-(methylamino)-N-[5-(7-methyl-2-pyridin-4-ylimidazo[1,2-a]-pyridin-3-yl)-6-(2-phenyl-ethynyl)pyridin-2-yl]propanamide], the IC50 is 16 nM in test [1] and 1 nM in test [2].
For `CNC(C)C(=O)Nc1cc(C(F)(F)F)cc(C#Cc2ccccc2)n1` (stereo not shown) [Example 198, 2-(methylamino)-N-[6-(2-phenylethynyl)-4-(trifluoromethyl)pyridin-2-yl]propanamide] the same measures were 10500 nM and 4930 nM.
On the same counts, the results for `CNC(C)C(=O)Nc1ccc(-c2c(C)nc3ccccn23)c(C#Cc2ccc3c(OC)nccc3c2)n1` (stereo not shown) [Example 77, N-[6-[2-(1-methoxyisoquinolin-6-yl)ethynyl]-5-(2-methyl-imidazo[1,2-a]pyridin-3-yl)-pyridin-2-yl]-2-(methylamino)-propanamide] are 196 nM and 1 nM.
In the case of `CC(N)C(=O)Nc1cccc(C#Cc2cccnc2)n1` (stereo not shown) [Example 215, 2-amino-N-[6-(2-pyridin-3-ylethynyl)pyridin-2-yl]propanamide], the IC50 in test [1] stood at 9700 nM; in test [2] it was 985 nM.
For `CNC(C)C(=O)Nc1ccc(-c2c(C)nc3ccccn23)c(C#Cc2nn(C)c3ccccc23)n1` (stereo not shown) [Example 61, 2-(methylamino)-N-[5-(2-methylimidazo[1,2-a]pyridin-3-yl)-6-[2-(1-methylindazol-3-yl)-ethynyl]pyridin-2-yl]propan-amide] the same measures were 187 nM and 5 nM.
On the same counts, the results for `COC(=O)c1cccc(C#Cc2cccc(NC(=O)C(C)N)n2)c1` (stereo not shown) [Example 223, methyl 3-[2-[6-[[2-aminopropanoyl]amino]pyridin-2-yl]ethynyl]benzoate] are 2460 nM and 2620 nM.
On the same counts, the results for `Cc1ccccc1C#Cc1cccc(NC(=O)C(C)N)n1` (stereo not shown) [Example 232, 2-amino-N-[6-[2-(2-methylphenyl)ethynyl]pyridin-2-yl]propanamide] are 1250 nM and 672 nM.
With `CNC(C)C(=O)Nc1ccc(-c2cnc(C(=O)OC)nc2)c(C#Cc2ccccc2)n1` (stereo not shown) [Example 194, methyl 5-[6-[[2-(methylamino)-propanoyl]amino]-2-(2-phenyl-ethynyl)pyridin-3-yl]pyrimidine-2-carboxylate], the values for the half-inhibitory concentration (IC50) in test [1] and in test [2] were 102 nM and 23 nM, respectively.
For `CNC(C)C(=O)Nc1ccc(-c2c(-c3ccncc3)nc3cc(C)ccn23)c(C#Cc2ccc3c(c2)OCC(=O)N3C)n1` (stereo not shown) [Example 94, 2-(methylamino)-N-[6-[2-(4-methyl-3-oxo-1,4-benzoxazin-7-yl)ethynyl]-5-(7-methyl-2-pyridin-4-ylimidazo[1,2-a]-pyridin-3-yl)pyridin-2-yl]-propanamide] the same measures were 107 nM and 1 nM.
For `CNC(C)C(=O)Nc1ccc(-c2c(C)nc3ccccn23)c(C#Cc2cc3ccncc3s2)n1` (stereo not shown) [Example 50, 2-(methylamino)-N-[5-(2-methylimidazo[1,2-a]pyridin-3-yl)-6-(2-thieno[2,3-c]pyridin-2-ylethynyl)pyridin-2-yl]propan-amide] the same measures were 95 nM and 1 nM.
